Here are results for 4 compounds from ChEMBL document CHEMBL4177572, “Recent advances in JAK3 inhibition: Isoform selectivity by covalent cysteine targeting” (Bioorg Med Chem Lett, 2017).

Structures are written as SMILES.

The species named for series [1] is Homo sapiens. The series is described as follows: Selectivity ratio of IC50 for JAK1 (unknown origin) to IC50 for JAK3 (unknown origin).
For series [2], the species on record is Homo sapiens. The series is described as follows: Selectivity ratio of IC50 for TYK2 (unknown origin) to IC50 for JAK3 (unknown origin).
For series [3], the species on record is Homo sapiens. The series is described as follows: Selectivity ratio of IC50 for JAK2 (unknown origin) to IC50 for JAK3 (unknown origin).
Series [4] deals with Tyrosine-protein kinase JAK2 (Homo sapiens, UniProt O60674). Kind of series: Time-dependent inhibition of recombinant human N-terminal His-tagged JAK2 (826 to 1132 residues) expressed in sf21 cells using biotinylated peptide substrate after 1 hr by DELFIA.
Tyrosine-protein kinase JAK2, sequence (O60674 whole entry, the tested form may be a part): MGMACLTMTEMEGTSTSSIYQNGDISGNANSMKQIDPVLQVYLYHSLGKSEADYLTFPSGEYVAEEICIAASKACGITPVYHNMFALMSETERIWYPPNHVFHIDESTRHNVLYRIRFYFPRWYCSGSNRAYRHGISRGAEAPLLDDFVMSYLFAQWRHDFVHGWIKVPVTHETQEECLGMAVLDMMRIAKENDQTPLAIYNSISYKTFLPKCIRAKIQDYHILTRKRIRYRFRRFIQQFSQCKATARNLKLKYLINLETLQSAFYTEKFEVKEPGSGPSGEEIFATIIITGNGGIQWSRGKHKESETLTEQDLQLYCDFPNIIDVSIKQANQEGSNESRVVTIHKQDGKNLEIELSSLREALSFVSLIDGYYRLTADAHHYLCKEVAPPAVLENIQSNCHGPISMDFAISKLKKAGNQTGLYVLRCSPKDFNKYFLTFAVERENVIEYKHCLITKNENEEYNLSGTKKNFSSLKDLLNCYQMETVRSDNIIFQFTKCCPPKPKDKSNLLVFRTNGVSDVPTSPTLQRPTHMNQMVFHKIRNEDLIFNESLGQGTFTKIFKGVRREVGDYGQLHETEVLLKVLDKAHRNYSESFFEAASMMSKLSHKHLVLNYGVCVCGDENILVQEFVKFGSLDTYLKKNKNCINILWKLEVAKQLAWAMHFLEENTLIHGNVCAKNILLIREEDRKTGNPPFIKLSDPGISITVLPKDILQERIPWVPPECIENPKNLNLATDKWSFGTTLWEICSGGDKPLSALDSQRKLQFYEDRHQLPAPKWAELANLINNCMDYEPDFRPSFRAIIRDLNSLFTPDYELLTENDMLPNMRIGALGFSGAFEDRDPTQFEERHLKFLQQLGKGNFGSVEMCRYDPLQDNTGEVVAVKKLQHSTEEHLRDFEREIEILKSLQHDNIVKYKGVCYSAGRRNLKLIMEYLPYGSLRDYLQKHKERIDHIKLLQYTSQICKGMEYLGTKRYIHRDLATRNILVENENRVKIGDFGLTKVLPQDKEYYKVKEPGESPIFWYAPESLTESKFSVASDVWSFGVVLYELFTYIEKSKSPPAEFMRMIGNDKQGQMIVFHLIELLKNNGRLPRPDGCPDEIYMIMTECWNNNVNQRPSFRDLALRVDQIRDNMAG
Series [5] concerns the target T1, Tyrosine-protein kinase JAK3 (Homo sapiens) (UniProt P52333).
T1 sequence (whole entry): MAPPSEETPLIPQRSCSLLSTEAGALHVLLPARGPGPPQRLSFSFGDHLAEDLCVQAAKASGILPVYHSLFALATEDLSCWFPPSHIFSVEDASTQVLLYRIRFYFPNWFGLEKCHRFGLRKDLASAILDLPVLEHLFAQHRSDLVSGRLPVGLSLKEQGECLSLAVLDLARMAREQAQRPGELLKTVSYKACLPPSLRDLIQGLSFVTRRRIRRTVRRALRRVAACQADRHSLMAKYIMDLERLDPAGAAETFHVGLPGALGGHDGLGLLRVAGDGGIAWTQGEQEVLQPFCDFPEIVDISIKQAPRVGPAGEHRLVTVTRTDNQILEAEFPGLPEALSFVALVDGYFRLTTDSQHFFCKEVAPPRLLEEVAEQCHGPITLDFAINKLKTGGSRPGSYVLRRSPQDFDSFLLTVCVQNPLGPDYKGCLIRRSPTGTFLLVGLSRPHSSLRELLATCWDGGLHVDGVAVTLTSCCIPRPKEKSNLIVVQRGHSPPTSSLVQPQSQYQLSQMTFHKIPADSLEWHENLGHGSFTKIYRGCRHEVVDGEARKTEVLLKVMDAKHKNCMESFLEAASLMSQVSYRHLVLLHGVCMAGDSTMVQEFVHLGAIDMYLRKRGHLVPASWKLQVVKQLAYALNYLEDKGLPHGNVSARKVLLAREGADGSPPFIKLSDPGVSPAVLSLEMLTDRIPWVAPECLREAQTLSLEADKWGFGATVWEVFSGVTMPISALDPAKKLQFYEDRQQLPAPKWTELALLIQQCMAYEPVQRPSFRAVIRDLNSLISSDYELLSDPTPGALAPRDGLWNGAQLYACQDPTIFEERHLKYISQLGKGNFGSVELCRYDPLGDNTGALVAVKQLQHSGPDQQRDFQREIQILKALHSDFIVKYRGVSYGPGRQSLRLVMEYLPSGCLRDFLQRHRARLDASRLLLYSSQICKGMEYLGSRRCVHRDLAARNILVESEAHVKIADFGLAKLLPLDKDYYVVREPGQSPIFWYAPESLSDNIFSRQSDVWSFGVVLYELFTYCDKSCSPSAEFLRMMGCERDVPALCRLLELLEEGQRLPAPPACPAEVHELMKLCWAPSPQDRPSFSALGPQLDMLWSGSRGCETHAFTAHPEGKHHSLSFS
The series is described as follows: Binding affinity to JAK3 (unknown origin) assessed as dissociation half life.

The target of series [6] is T2, JAK3/JAK1 (Homo sapiens, UniProt P23458+P52333). The series is described as follows: Inhibition of JAK1/JAK3 in human whole blood CD3+/CD4+ T cells assessed as reduction in IL7-stimulated STAT5 phosphorylation.
T2 sequence (P23458 whole entry, one chain of several): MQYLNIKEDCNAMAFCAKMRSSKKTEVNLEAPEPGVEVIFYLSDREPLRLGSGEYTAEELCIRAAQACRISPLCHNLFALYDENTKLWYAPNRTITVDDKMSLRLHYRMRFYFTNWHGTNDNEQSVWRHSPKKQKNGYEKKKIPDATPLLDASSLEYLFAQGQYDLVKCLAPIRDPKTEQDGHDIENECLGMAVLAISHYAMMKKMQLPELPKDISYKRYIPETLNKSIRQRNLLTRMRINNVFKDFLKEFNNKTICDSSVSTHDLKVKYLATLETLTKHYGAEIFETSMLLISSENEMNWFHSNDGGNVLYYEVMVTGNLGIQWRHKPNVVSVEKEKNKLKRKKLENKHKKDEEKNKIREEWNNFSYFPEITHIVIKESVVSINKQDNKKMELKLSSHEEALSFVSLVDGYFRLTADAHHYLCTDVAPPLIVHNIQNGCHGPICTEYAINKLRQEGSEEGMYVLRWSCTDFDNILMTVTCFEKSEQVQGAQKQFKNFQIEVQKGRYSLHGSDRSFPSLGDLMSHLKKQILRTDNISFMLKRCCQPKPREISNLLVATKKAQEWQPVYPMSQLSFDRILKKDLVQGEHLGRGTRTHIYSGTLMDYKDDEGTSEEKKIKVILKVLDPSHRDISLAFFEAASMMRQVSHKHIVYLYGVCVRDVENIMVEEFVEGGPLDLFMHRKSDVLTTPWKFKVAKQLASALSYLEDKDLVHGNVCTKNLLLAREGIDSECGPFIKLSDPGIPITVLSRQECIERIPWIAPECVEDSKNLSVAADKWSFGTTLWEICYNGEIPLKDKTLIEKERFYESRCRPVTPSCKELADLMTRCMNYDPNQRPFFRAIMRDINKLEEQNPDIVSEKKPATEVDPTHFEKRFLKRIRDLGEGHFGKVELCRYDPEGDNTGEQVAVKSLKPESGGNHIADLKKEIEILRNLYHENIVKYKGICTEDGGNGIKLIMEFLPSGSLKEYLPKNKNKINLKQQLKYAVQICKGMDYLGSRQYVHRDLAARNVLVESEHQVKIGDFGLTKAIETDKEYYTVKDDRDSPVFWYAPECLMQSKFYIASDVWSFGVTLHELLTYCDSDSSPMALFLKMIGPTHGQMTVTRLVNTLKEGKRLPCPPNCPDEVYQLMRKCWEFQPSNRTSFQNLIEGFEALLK
Series [7] concerns the target Tyrosine-protein kinase JAK1/JAK3 (Mus musculus, UniProt P52332+Q62137). Kind of series: Inhibition of JAK3/JAK1 in mouse CTLL-2 cells assessed as reduction in IL2-stimulated STAT5 phosphorylation. In kind it is cell-based.
In series [8] the target is T2, JAK3/JAK1. The series is described as follows: Inhibition of JAK1/JAK3 in human PBMC CD3+/CD8+ T cells assessed as reduction in IL7-stimulated STAT5 phosphorylation.
Series [9] is described as follows: Half life in rat. In kind it is ADME, organism-based. The settings on record: in vivo.

For `c1nc(-c2cn(CC3CO3)nn2)c2cc[nH]c2n1` (centres undefined), the results for the Ratio IC50 in [1], in [2] and in series [3] were 70, 160 and 70, respectively.
What is called IC50 is the concentration needed to halve the response being measured. For the compound `C=CC(=O)Nc1ccc2ncn(-c3cncc(NC(C)(C)C)n3)c2c1`, the IC50 in series [4] was 40 nM.
As for `CN(C)C(=O)/C(C#N)=C/c1ccc(Nc2cnc3[nH]cc(C(=O)C(C)(C)C)c3n2)cc1`, the T1/2 in [5] was determined as 9 h.
The term half-life denotes the time in which the quantity being followed falls by half. Regarding `C=C(C)C(=O)Nc1cccc(-c2ncnc3[nH]cc(C(=O)OCC)c23)c1`, the IC50 is 5100 nM in series [6], 70 nM in series [7] and 280 nM in [8]. The compound also gave a half-life in series [9] of 0.3 h.
